Assay results taken from PMC8784342, “Investigation of sugar binding kinetics of the E. coli sugar/H^+ symporter XylE using solid-supported membrane-based electrophysiology” (The Journal of Biological Chemistry, 2021).
Marks after values point to notes of the source that are not given here.

Legend:
wt LacY [1] = biological target: T1, wt LacY (Escherichia coli, UniProt P02920); test: SSM-based electrophysiology, proteoliposomes with wt LacY; format: biochemical; conditions: pH 5.0; 100 mM substrate
T1 construct: made in house; host or cells: E. coli XL1-Blue
T1 sequence (P02920 1-417): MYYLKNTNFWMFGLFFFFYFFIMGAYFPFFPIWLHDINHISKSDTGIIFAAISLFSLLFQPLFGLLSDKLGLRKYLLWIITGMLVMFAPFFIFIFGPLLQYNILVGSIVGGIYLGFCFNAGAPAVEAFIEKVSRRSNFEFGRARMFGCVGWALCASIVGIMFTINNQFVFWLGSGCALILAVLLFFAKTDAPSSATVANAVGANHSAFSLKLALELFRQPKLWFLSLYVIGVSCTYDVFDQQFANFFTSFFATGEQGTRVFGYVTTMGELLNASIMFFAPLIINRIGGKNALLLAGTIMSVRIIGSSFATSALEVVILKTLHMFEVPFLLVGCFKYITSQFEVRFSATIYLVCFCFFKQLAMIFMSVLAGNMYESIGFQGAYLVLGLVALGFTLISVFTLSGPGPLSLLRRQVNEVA
Procedure: (§1) Reconstitution of purified proteins (2–20 mg/ml) was carried out with E. coli phospholipids (Avanti Polar Lipids, E. coli polar lipid extract). Preformed liposomes (0.2–2 ml, 10 mg/ml) were dissolved in 1% (w/v) n-octyl-β-D-glucoside, and the protein suspension was mixed on ice to a concentration of 0.2 mg protein/mg lipid (LPR 5).
(§2) Wt XylE, wt FucP, and the mutant proteins were reconstituted using overnight incubation in 400 mg/ml BioBeads (SM-2 Adsorbent Media, Bio-Rad) at 4 °C. After reconstitution, the samples were diluted to 2.5 mg/ml lipid concentration, frozen in liquid nitrogen, and stored at −80 °C. For wt LacY and mutant proteins, this procedure was not successful. We, therefore, applied the previously established n-octyl-β-D-glucoside dilution method (1:100) ([69]).
(§3) SSM measurements were performed as described ([20], [23]). After thawing the sample and sonication in a water bath, 30 μl of proteoliposomes (2.5 mg/ml lipid at LPR 5) was allowed to adsorb for 1 to 2 h to an octadecanethiol/phosphatidylcholine hybrid bilayer on a gold surface (the sensor).
(§4) For measurements, a single solution exchange configuration ([23]) was employed that consisted in three phases of 0.5 s duration each: Flow of nonactivating solution (NA), activating solution (A), and nonactivating solution (NA). Only the activating solution contained the sugar. When pH dependence is determined, pH of NA and A solutions during one experiment are kept constant. Between experiments using different pH values, the sensor was incubated at the new pH for 3 min to equilibrate the intraliposomal pH.
(§5) Instruments with different time resolution were used as required. […] Currents were recorded throughout the entire time and amplified with a current amplifier set to a gain of […] and a rise time of 10 ms (low time-resolution set up) or 3 ms (high time-resolution set up).
(§6) All NA solutions were buffered in 100 mM KPi at a given pH value. NA solutions used with LacY contained 1 mM DTT in addition. A solutions were made from NA solutions by adding the respective sugar at a given concentration to induce the symport reaction. Sugar concentration jumps initiated sugar-proton symport, and charge transfer was measured by capacitive coupling. Therefore, only transient currents were recorded.
(§7) Each dataset represented with error bars was generated by performing the same experiment on multiple sensors (n ≥ 3). Error bars represent standard deviations of the average value. When peak currents are averaged across sensors, datasets are normalized before averaging. When the protein catalyzes transport and PSS currents are negligible, the peak current of the transient represents a good approximation of the current generated by the steady-state symport activity of the transporter. In most cases, peak currents have been used to derive kinetic and thermodynamic parameters according to the equations given in Figure 2 (KM, Imax ∼ Vmax, Hill coefficient n), Figure 4 (KD and rate constants for sugar binding kon and release koff), and Figure 6 (pKa for proton binding and pKb for proton release). Reconstruction of transporter currents for analysis of biphasic currents has been performed as described previously ([70]). This is required when transport and PSS currents are observed at the same time.

E325A LacY = biological target: T2, E325A LacY (Escherichia coli, UniProt P02920, E325A); test: SSM-based electrophysiology, transport-deficient mutant E325A LacY (PSS currents, electrogenic binding); format: biochemical
T2 construct: made in house; host or cells: E. coli XL1-Blue
Procedure: as §1, §2, §3, §4, §5, §6, §7

wt LacY [2] = biological target: T1, wt LacY; conditions: pH 7.6, main substrate, cited from earlier work
LacY = conditions: cited from earlier work
single-Cys LacY = biological target: single-Cys LacY; design: method as in PMID 7918438, PMID 15304639; conditions: read-out: KD, protection against labeling; cited from earlier work
D46N FucP = biological target: T3, D46N FucP (Escherichia coli, UniProt P11551, D46N); test: SSM-based electrophysiology, transport-deficient mutant D46N FucP (PSS currents); format: biochemical
T3 construct: made in house; host or cells: E. coli BL21 DE3
Procedure: as §1, §2, §3, §4, §5, §6, §7

wt FucP [3] = biological target: T4, wt FucP (Escherichia coli, UniProt P11551); test: SSM-based electrophysiology, proteoliposomes with wt FucP; format: biochemical
T4 construct: made in house; host or cells: E. coli BL21 DE3
T4 sequence (P11551 1-438): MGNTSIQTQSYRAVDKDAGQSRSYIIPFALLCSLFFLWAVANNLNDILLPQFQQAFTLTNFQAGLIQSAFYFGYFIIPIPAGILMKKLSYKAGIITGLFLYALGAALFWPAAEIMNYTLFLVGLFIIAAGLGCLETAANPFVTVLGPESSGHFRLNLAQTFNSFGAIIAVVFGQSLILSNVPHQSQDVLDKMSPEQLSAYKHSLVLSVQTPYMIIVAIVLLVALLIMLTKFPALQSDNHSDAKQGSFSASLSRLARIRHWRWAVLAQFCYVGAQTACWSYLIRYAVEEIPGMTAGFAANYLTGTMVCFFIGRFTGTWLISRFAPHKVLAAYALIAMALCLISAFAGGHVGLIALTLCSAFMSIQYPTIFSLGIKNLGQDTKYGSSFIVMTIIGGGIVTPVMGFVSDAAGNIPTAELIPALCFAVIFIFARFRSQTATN
Procedure: as §1, §2, §3, §4, §5, §6, §7

wt XylE = wt XylE (Escherichia coli, UniProt P0AGF4); test: biochemical; design: made in house; host or cells: E. coli BL21 DE3; conditions: pH 7.0
Procedure: as §1, §2, §3, §4, §5, §6, §7

C154G/V331C LacY = test system: C154G/V331C LacY; design: method as in PMID 19383792, PMID 17176050; conditions: stopped flow; cited from earlier work
wt FucP [4] = biological target: T4, wt FucP; conditions: pH 7.6, main substrate, cited from earlier work
FucP = test system: FucP; design: method as in PMID 2829831, PMID 8384447; conditions: radioactively labeled sugars; read-out: KM, literature; cited from earlier work
[5] = read-out: KM (mM) Michaelis–Menten equation

T2 sequence (P02920 whole entry E325A): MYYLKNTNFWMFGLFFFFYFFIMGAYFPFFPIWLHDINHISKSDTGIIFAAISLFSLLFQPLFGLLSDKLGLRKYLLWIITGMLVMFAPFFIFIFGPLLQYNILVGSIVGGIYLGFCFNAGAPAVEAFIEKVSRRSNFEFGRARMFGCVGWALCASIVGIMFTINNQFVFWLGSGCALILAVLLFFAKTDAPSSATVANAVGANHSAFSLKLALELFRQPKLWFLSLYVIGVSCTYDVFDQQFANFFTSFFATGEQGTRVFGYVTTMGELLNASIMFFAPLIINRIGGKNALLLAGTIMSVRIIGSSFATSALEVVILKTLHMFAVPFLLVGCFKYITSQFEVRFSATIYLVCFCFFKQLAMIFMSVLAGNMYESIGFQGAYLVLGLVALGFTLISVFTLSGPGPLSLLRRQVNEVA
T3 sequence (P11551 whole entry D46N): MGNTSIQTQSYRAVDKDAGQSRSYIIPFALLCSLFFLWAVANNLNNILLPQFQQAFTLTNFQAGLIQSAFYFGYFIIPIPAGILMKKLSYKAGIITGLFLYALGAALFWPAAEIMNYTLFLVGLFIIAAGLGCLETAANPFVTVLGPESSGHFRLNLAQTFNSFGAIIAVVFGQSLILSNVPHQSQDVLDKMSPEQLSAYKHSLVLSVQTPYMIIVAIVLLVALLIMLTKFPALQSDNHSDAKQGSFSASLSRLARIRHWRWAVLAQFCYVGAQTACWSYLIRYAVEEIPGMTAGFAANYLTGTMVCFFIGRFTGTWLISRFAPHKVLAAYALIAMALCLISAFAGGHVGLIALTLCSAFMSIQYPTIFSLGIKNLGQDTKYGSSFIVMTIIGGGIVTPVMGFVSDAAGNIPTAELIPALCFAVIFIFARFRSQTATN
Sequence of wt XylE (P0AGF4 whole entry): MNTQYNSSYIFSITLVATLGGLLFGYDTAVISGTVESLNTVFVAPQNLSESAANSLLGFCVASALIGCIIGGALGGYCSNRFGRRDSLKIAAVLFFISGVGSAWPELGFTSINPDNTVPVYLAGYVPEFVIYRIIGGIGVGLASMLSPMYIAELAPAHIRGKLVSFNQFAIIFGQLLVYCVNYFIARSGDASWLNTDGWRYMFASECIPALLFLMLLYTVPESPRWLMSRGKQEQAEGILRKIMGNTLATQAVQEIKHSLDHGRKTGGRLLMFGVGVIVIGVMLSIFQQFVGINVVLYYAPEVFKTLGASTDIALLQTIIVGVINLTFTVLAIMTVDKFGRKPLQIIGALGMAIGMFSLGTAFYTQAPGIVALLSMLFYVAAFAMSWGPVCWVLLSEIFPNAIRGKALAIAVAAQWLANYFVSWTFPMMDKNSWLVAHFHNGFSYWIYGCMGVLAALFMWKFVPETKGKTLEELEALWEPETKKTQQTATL

## OC[C@H]1O[C@@H](O[C@H]2[C@H](O)[C@@H](O)[C@H](O)O[C@@H]2CO)[C@H](O)[C@@H](O)[C@H]1O [D-lactose]
Wt LacY [1]
  Q (pC) wt, PSS transferred charge: 2.6 ± 0.6 (pH 5.0) pC
E325A LacY
  Kd: 20 ± 3 mM
E325A LacY; pH 7.6, saturating substrate (100 mM D-lactose, lactulose; 5 mM TDG)
  Q (pC) Mut, transferred charge: 3.1 ± 1.8 (pH 7.6) pC
E325A LacY; saturating substrate (100 mM D-lactose, lactulose; 5 mM TDG), kobs = 1/τ, limited by time resolution
  kobs (s^−1) mut: 260 ± 60 s⁻¹
Wt LacY [2]
  Imax: 0.7 ± 0.2 nA
Wt LacY [2]; [5]
  Km: 5.3 ± 0.5 mM
LacY
  transport rate: 30 to 50 s⁻¹
LacY; radioactively labeled sugars, read-out: KM, literature
  Km: 0.5 to 3 mM
single-Cys LacY
  Kd: 1 to 10 mM

## O[C@@H]1[C@@H](O)[C@@H](O)CO[C@H]1O [L-arabinose]
D46N FucP
  induction of PSS currents: do not generate PSS currents

## OC[C@@H]1OC(O)[C@@H](O)[C@H](O)[C@@H]1O (stereo partly drawn) [L-galactose]
Wt FucP [3]; pH 7.6
  Imax in percent of Imax of the main substrate (L-fucose): 123 ± 8%

## OC[C@@H]1OC(O)[C@H](O)[C@@H](O)[C@@H]1O (stereo partly drawn) [L-idose]
Wt XylE
  induction of currents (substrate identification): generated signals identifying them as substrates

## O=[N+]([O-])c1ccc(OC2O[C@H](CO)[C@H](O)[C@H](O)[C@H]2O)cc1 (stereo partly drawn) [p-nitrophenyl-D-galactopyranoside]
C154G/V331C LacY
  rate constant of the binding reaction: 10^6 M^−1 s^−1
  rate constant of the following conformational changes: 250 s⁻¹

## L-fucose
Wt FucP [3]; pH 7.6
  KM lower than KM obtained for minor substrates: 7–12 fold
Wt FucP [3]; pH 10.5, 30 mM substrate, rough estimation
  Q (pC) wt, PSS transferred charge: ∼0.5 ^b (pH 10.5) pC
D46N FucP
  induction of PSS currents: induces PSS currents
D46N FucP; 30 mM substrate, low time-resolution set up
  kobs (s^−1) mut: 100 ± 20 ^a s^−1
D46N FucP; pH 10.5, 30 mM substrate
  Q (pC) Mut, transferred charge: −1.2 ± 0.6 (pH 10.5) pC
Wt FucP [4]
  Imax: 0.5 ± 0.2 nA
Wt FucP [4]; [5]
  Km: 0.9 ± 0.1 mM
FucP
  Km: 20 to 40 µM
